ChEMBL document CHEMBL1201862, “PubChem BioAssay data set” (2004)
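Each compound was tested at five concentrations against cells in 96-well plates for 48 hours. Here, GI50 denotes the concentration required for 50% inhibition of growth.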 The source made the active and inactive calls. No stated cut-off is given here; in the data, active = GI50 up to about 1.1 µM and inactive = higher.

Legend:
Test in all cases: NCI anticancer screen, dose series, 48 h
[1] = test system: OVCAR-8
[2] = test system: SF-268
[3] = test system: XF498
[4] = test system: NCI-H23
[5] = test system: LXFL 529
[6] = test system: LOX IMVI
[7] = test system: RXF 393
[8] = test system: U-251
[9] = test system: ACHN
[10] = test system: KM-20L2
[11] = test system: HCT-15
[12] = test system: SNB-19
[13] = test system: UACC-257
[14] = test system: HT-29
[15] = test system: SK-OV-3
[16] = test system: SW-620
[17] = test system: TK-10
[18] = test system: OVCAR-5
[19] = test system: NCI-H522
[20] = test system: HOP-62
[21] = test system: EKVX
[22] = test system: NCI-H226
[23] = test system: RXF 631
[24] = test system: SNB-78
[25] = test system: A498
[26] = test system: KM12
[27] = test system: DMS-273
[28] = test system: OVCAR-4
[29] = test system: SK-MEL-5
[30] = test system: HL-60
[31] = test system: SK-MEL-2
[32] = test system: UO-31
[33] = test system: M14
[34] = test system: SF-295
[35] = test system: A549
[36] = test system: COLO 205
[37] = test system: IGROV-1
[38] = test system: CAKI-1
[39] = test system: NCI-H460
[40] = test system: 786-0
[41] = test system: M19-MEL
[42] = test system: K562
[43] = test system: UACC-62
[44] = test system: CCRF-CEM
[45] = test system: RPMI-8226
[46] = test system: SF-539
[47] = test system: MOLT-4
[48] = test system: SK-MEL-28
[49] = test system: HCT-116
[50] = test system: SR
[51] = test system: SNB-75
[52] = test system: HOP-92
[53] = test system: OVCAR-3
[54] = test system: SN12C
[55] = test system: DLD-1
[56] = test system: DMS-114
[57] = test system: HCC 2998
[58] = test system: HOP-18
[59] = test system: Malme-3M

Measured: GI50

CCCNC(=O)Nc1c([N+](=O)[O-])cc(C(F)(F)F)cc1[N+](=O)[O-]
inactive: [1] 74.3 µM | [2] > 100 µM | [3] 35.6 µM | [4] 43 µM | [5] 55.2 µM | [6] 62.8 µM | [7] 11 µM | [8] > 100 µM | [9] 89.9 µM | [10] 26.2 µM | [12] > 100 µM | [13] 36.3 µM | [14] 37.4 µM | [15] > 100 µM | [16] 40.8 µM | [17] > 100 µM | [18] > 100 µM | [19] 31.3 µM | [20] > 100 µM | [21] > 100 µM | [22] > 100 µM | [23] 12.7 µM | [24] 82.8 µM | [25] > 100 µM | [26] 55.5 µM | [27] > 100 µM | [28] 20.3 µM | [29] 28.4 µM | [30] 24.5 µM | [31] > 100 µM | [32] > 100 µM | [33] 86.3 µM | [34] 84.9 µM | [35] 58.6 µM | [36] > 10 µM | [37] > 100 µM | [38] > 100 µM | [39] 42.1 µM | [40] > 100 µM | [41] 42.8 µM | [42] 47.1 µM | [43] 37.3 µM | [44] > 100 µM | [45] 83.9 µM | [46] 71.3 µM | [47] > 100 µM | [48] > 100 µM | [49] 25.3 µM | [50] 92.9 µM | [51] 34 µM | [52] > 100 µM | [53] 22.3 µM
51.8 µM: [11]

Cc1ccc(SC(CCC(Sc2ccc(C)cc2)Sc2ccc(C)cc2)Sc2ccc(C)cc2)cc1
> 100 µM: [11]
inactive: [1] > 100 µM | [2] > 100 µM | [3] > 100 µM | [4] > 100 µM | [6] > 100 µM | [7] > 100 µM | [8] > 100 µM | [9] > 100 µM | [10] > 100 µM | [12] > 100 µM | [13] > 100 µM | [15] > 100 µM | [16] > 100 µM | [17] > 100 µM | [54] > 100 µM | [19] > 100 µM | [20] > 100 µM | [21] > 100 µM | [23] > 100 µM | [24] > 100 µM | [25] > 100 µM | [55] > 100 µM | [26] > 100 µM | [27] > 100 µM | [28] > 100 µM | [29] > 100 µM | [30] > 100 µM | [31] > 100 µM | [32] > 100 µM | [33] > 100 µM | [34] > 100 µM | [35] > 100 µM | [36] > 100 µM | [37] > 100 µM | [38] > 100 µM | [39] > 100 µM | [40] > 100 µM | [41] > 100 µM | [42] > 100 µM | [43] > 100 µM | [44] > 100 µM | [56] > 100 µM | [45] > 100 µM | [46] > 100 µM | [47] > 100 µM | [48] > 100 µM | [49] > 100 µM | [50] > 100 µM | [51] > 100 µM | [52] 71.1 µM | [53] > 100 µM

O=C(/C=C/c1c(O)ccc2ccccc12)c1cccc2ccccc12
inactive: [1] > 100 µM | [2] > 100 µM | [3] > 100 µM | [4] > 100 µM | [57] > 100 µM | [5] > 83.6 µM | [6] > 59 µM | [7] > 100 µM | [8] > 71.9 µM | [9] > 100 µM | [10] > 100 µM | [12] > 89.5 µM | [13] > 100 µM | [14] > 72.4 µM | [15] > 100 µM | [16] > 37.1 µM | [17] > 100 µM | [18] > 100 µM | [54] > 100 µM | [19] 27.5 µM | [20] > 100 µM | [21] > 100 µM | [22] > 57.9 µM | [24] > 100 µM | [25] > 100 µM | [55] > 79.4 µM | [58] 58.6 µM | [26] > 100 µM | [27] > 100 µM | [29] > 100 µM | [30] > 43.8 µM | [31] > 95.1 µM | [32] 34 µM | [33] > 100 µM | [34] > 100 µM | [35] > 100 µM | [36] > 100 µM | [37] > 100 µM | [38] > 100 µM | [39] > 100 µM | [40] > 69.7 µM | [41] 26.1 µM | [42] 51.5 µM | [43] > 100 µM | [59] > 87.5 µM | [44] 23.7 µM | [56] > 59.7 µM | [45] 42.1 µM | [46] > 100 µM | [47] 51.5 µM | [48] > 100 µM | [49] 57.7 µM | [50] 36 µM | [51] > 52.4 µM | [52] > 100 µM | [53] > 100 µM
> 58.7 µM: [11]

CC(C)(CCl)NC(=O)c1cccc(C(=O)NC(C)(C)CCl)n1
inactive: [2] > 100 µM | [4] > 100 µM | [57] > 100 µM | [5] > 100 µM | [6] > 100 µM | [7] > 100 µM | [8] > 100 µM | [9] > 100 µM | [10] > 100 µM | [12] > 100 µM | [14] > 100 µM | [15] > 100 µM | [16] > 100 µM | [17] > 100 µM | [18] > 100 µM | [54] > 100 µM | [19] > 100 µM | [20] > 100 µM | [21] > 100 µM | [22] > 100 µM | [23] > 100 µM | [24] > 100 µM | [25] > 100 µM | [55] > 100 µM | [26] > 100 µM | [27] > 100 µM | [28] > 100 µM | [29] > 100 µM | [30] > 100 µM | [31] > 100 µM | [32] > 100 µM | [33] > 100 µM | [34] > 100 µM | [35] > 100 µM | [36] > 100 µM | [37] > 100 µM | [38] > 100 µM | [39] > 100 µM | [40] > 100 µM | [41] > 100 µM | [42] > 100 µM | [59] > 100 µM | [44] > 100 µM | [56] > 100 µM | [45] > 100 µM | [46] > 100 µM | [47] > 100 µM | [48] > 100 µM | [49] > 100 µM | [50] > 100 µM | [51] 92.3 µM | [52] > 100 µM | [53] > 100 µM
> 100 µM: [11]

Cc1cc(C)nc(NS(=O)(=O)c2ccc(Nc3c4ccccc4nc4c(C(=O)Nc5ccc(S(=O)(=O)Nc6cc(C)on6)cc5)cccc34)cc2)n1
inactive: [1] 18.4 µM | [2] 24.2 µM | [3] 22.5 µM | [4] 22.1 µM | [57] 16.8 µM | [5] 17.9 µM | [6] 19.8 µM | [7] 20.9 µM | [8] 19.8 µM | [9] 35.2 µM | [10] 21 µM | [12] 24.2 µM | [13] 25.5 µM | [14] 19.9 µM | [15] 27.1 µM | [16] 23.4 µM | [17] 26.8 µM | [18] 24.3 µM | [54] 24.5 µM | [19] 14.7 µM | [20] 21.2 µM | [21] 26.2 µM | [22] 21 µM | [24] 30.9 µM | [25] 19.2 µM | [55] 28.1 µM | [58] 20.4 µM | [26] 20 µM | [27] 23.8 µM | [28] 22.6 µM | [29] 18.7 µM | [30] 22.8 µM | [32] 26.4 µM | [33] 20.8 µM | [34] 22.8 µM | [35] 34.7 µM | [36] 17.7 µM | [37] 30.4 µM | [38] 21.9 µM | [39] 25.1 µM | [40] 18.5 µM | [41] 23.4 µM | [42] 23.2 µM | [43] 17.8 µM | [59] 24.2 µM | [56] 19.1 µM | [45] 22 µM | [46] 16 µM | [47] 24.8 µM | [48] 23.6 µM | [49] 16 µM | [50] 27.5 µM | [51] 32.3 µM | [52] 18.7 µM | [53] 17.7 µM
> 100 µM: [11]
